From ChEMBL document CHEMBL3861964, “Bioassay-Guided Isolation of Prenylated Xanthone Derivatives from the Leaves of Garcinia oligantha” (J Nat Prod, 2016)

Assays:
[1] = Cytotoxicity against human PC3 cells assessed as reduction in cell viability after 72 hrs by MTT assay; format: functional, cell-based; conditions: PC-3, 72 h
[2] = Cytotoxicity against human HepG2 cells assessed as reduction in cell viability after 72 hrs by MTT assay; format: functional, cell-based; conditions: HepG2, 72 h
[3] = Cytotoxicity against human HL-7702 cells assessed as reduction in cell viability after 72 hrs by MTT assay; format: toxicity, cell-based, L02
cells = conditions: Homo sapiens, HT-29, 72 h
Description: Cytotoxicity against human HT-29 cells assessed as reduction in cell viability after 72 hrs by MTT assay

[4] = Cytotoxicity against human A549 cells assessed as reduction in cell viability after 72 hrs by MTT assay; format: functional, cell-based; conditions: A549, 72 h

Row | Structure (SMILES) | IC50 [1] [µM] | IC50 [2] [µM] | IC50 at 72 h [3] [µM] | IC50 (cells) [µM] | IC50 [4] [µM]
1 | CO[C@]12C=C3C(=O)c4c(O)c(CC=C(C)C)c(O)c(CC=C(C)C)c4O[C@]34C(C1)C(C)(C)O[C@]4(CC=C(C)C)C2=O | 2.3 | 2.9 | 3.1 | 2.3 | 2.9
2 | CC(C)=CCC/C(C)=C/C[C@]1(C(=O)O)CC(=C(C)C)C(=O)c2oc3c(CC=C(C)C)c(O)cc(O)c3c(=O)c21 | > 10 | > 10 |  | > 10 | > 10
3 | CC(C)=CCC1(CC=C(C)C)C(=O)C(O)=C(O)c2oc3c4c(cc(O)c3c(=O)c21)OC(C)(C)C=C4 | 3.2 | 6.2 | 6.4 | 4.1 | 5.5
4 | CC(C)=CCc1c(O)c(O)c(O)c2oc3c4c(cc(O)c3c(=O)c12)OC(C)(C)C=C4 | > 10 | > 10 |  | > 10 | > 10
5 | CC(C)=CCC/C(C)=C/C[C@@]1(CC=C(C)C)C(=O)C(O)=C(O)c2oc3c4c(cc(O)c3c(=O)c21)OC(C)(C)C=C4 | 5.9 | > 10 | > 10 | 6.4 | 5
6 | CC(C)=CCC1=C(O)C(=O)C(CC=C(C)C)(CC=C(C)C)c2c1oc1cc(O)cc(O)c1c2=O | > 10 | > 10 |  | > 10 | > 10
7 | CC(=O)O[C@H]1C(=O)[C@@]2(C)[C@H]([C@H](OC(=O)c3ccccc3)[C@]3(O)C[C@H](OC(=O)[C@H](O)[C@@H](NC(=O)c4ccccc4)c4ccccc4)C(C)=C1C3(C)C)[C@]1(OC(C)=O)CO[C@@H]1C[C@@H]2O [PACLITAXEL] | 0.03 | 0.2 | 0.06 |  | 0.08
8 | CC(C)=CCc1c(O)cc(O)c2c(=O)c3c(oc12)C(CC=C(C)C)(CC=C(C)C)C(=O)C(O)=C3 | > 10 | > 10 |  | > 10 | > 10
9 | CO[C@]12C=C3C(=O)c4c(O)cc(O)c(CC=C(C)C)c4O[C@]34C(C1)C(C)(C)O[C@]4(CC=C(C)C)C2=O | 2.1 | 2.8 | 2.5 | 2.2 | 3
10 | C=C(C)[C@H]1C[C@](C/C=C(\C)CCC=C(C)C)(C(=O)O)c2c(oc3c(CC=C(C)C)c(O)cc(O)c3c2=O)[C@@H]1O | > 10 | > 10 |  | > 10 | > 10
11 | CO[C@@]12C=C3C(=O)c4c(O)cc5c(c4O[C@@]34[C@@H]1C(C)(C)O[C@@]4(CC=C(C)C)C2=O)C=CC(C)(C)O5 | 4.6 | 4.5 | 8.6 | 4.8 | 3.9
12 | CC(C)=CCC1(C(=O)O)CC(=C(C)C)C(=O)c2oc3c4c(cc(O)c3c(=O)c21)OC(C)(C)C=C4 (racemic) | > 10 | > 10 |  | > 10 | > 10
13 | CC(C)=CCc1cc(C(C)C)c(O)c2oc3c4c(cc(O)c3c(=O)c12)OC(C)(C)C=C4 | > 10 | > 10 |  | > 10 | > 10
